Measurements: US12673970B2, “Neuroactive steroids and their methods of use” (priority 2020, dated 2026)

Test system: GABAA receptor ([35S]-TBPS binding, rat brain cortical membranes)
Assay: not given
Conditions: statement on the positive control; cited from earlier work

Molecule	inhibition of TBPS binding (positive control)
Picrotoxin	robustly inhibit TBPS binding

Biological target: GABAA receptor ([35S]-TBPS binding, rat brain cortical membranes)
Assay: Steroid inhibition of [35S]-TBPS binding
Conditions: 3 nM [35S]-TBPS, in the presence of 5 mM GABA
Experimental: [35S]-t-Butylbicyclophosphorothionate (TBPS) binding assays using rat brain cortical membranes in the presence of 5 mM GABA has been described (Gee et al, J. Pharmacol. Exp. Ther. 1987, 241, 346-353; Hawkinson et al, Mol. Pharmacol. 1994, 46, 977-985; Lewin, A. H et al., Mol. Pharmacol. 1989, 35, 189-194).
Briefly, cortices are rapidly removed following decapitation of carbon dioxide-anesthetized Sprague-Dawley rats (200-250 g). The cortices are homogenized in 10 volumes of ice-cold 0.32 M sucrose using a glass/teflon homogenizer and centrifuged at 1500×g for 10 min at 4° C. The resultant supernatants are centrifuged at 10,000×g for 20 min at 4° C. to obtain the P2 pellets. The P2 pellets are resuspended in 200 mM NaCl/50 mM Na—K phosphate pH 7.4 buffer and centrifuged at 10,000×g for 10 min at 4° C. This washing procedure is repeated twice and the pellets are resuspended in 10 volumes of buffer. Aliquots ([…]) of the membrane suspensions are incubated with 3 nM [35S]-TBPS and 5 mL aliquots of test drug dissolved in dimethyl sulfoxide (DMSO) (final 0.5%) in the presence of 5 mM GABA. The incubation is brought to a final volume of 1.0 mL with buffer. Nonspecific binding is determined in the presence of […] and ranged from 15 to 25%. Following a 90 min incubation at room temp, the assays are terminated by filtration through glass fiber filters (Schleicher and Schuell No. 32) using a cell harvester (Brandel) and rinsed three times with ice-cold buffer. Filter bound radioactivity is measured by liquid scintillation spectrometry. Non-linear curve fitting of the overall data for each drug averaged for each concentration is done using Prism (GraphPad). […] The concentration of test compound producing 50% inhibition (IC50) of specific binding and the maximal extent of inhibition (Imax) are determined for the individual experiments with the same model used for the overall data and then the means±SEM.s of the individual experiments are calculated.
Various compounds are or can be screened to determine their potential as modulators of [35S]-TBPS binding in vitro. These assays are or can be performed in accordance with the above

Molecule	IC50 [nM]
C[C@@]1(O)CC[C@H]2[C@@H](CC[C@@H]3[C@@H]2CC[C@]2(C)[C@@H](C(=O)CCn4cc(C#N)cn4)CC[C@@H]32)C1 [Example 1, 1-(3-((3R,5S,8R,9R,10S,13S,14S,17S)-3-hydroxy-3,13-dimethylhexadecahydro-1H-cyclopenta[a]phenanthren-17-yl)-3-oxopropyl)-1H-pyrazole-4-carbonitrile]	< 100
COC[C@@]1(O)CC[C@H]2[C@@H](CC[C@@H]3[C@@H]2CC[C@]2(C)[C@@H](C(=O)CCn4cc(C#N)cn4)CC[C@@H]32)C1 [Example 2, 1-(3-((3R,5S,8R,9R,10S,13S,14S,17S)-3-hydroxy-3-(methoxymethyl)-13-methylhexadecahydro-1H-cyclopenta[a]phenanthren-17-yl)-3-oxopropyl)-1H-pyrazole-4-carbonitrile]	< 100
C[C@@]1(O)CC[C@H]2[C@H](CC[C@@H]3[C@@H]2CC[C@]2(C)[C@@H](C(=O)CCCn4cc(C#N)cn4)CC[C@@H]32)C1 [Example 3, 1-(4-((3R,5R,8R,9R,10S,13S,14S,17S)-3-hydroxy-3,13-dimethylhexadecahydro-1H-cyclopenta[a]phenanthren-17-yl)-4-oxobutyl)-1H-pyrazole-4-carbonitrile]	< 100
C[C@@]1(O)CC[C@H]2[C@H](CC[C@@H]3[C@@H]2CC[C@]2(C)[C@@H](C(=O)CCCCn4cc(C#N)cn4)CC[C@@H]32)C1 [Example 4, 1-(5-((3R,5R,8R,9R,10S,13S,14S,17S)-3-hydroxy-3,13-dimethylhexadecahydro-1H-cyclopenta[a]phenanthren-17-yl)-5-oxopentyl)-1H-pyrazole-4-carbonitrile]	< 100
C[C@@]1(O)CC[C@H]2[C@H](CC[C@@H]3[C@@H]2CC[C@]2(C)[C@@H](CC(=O)Cn4cc(C#N)cn4)CC[C@@H]32)C1 [Example 5, 1-(3-((3R,5R,8R,9R,10S,13R,14S,17R)-3-hydroxy-3,13-dimethylhexadecahydro-1H-cyclopenta[a]phenanthren-17-yl)-2-oxopropyl)-1H-pyrazole-4-carbonitrile]	100 to 1000
CC(C)(C(=O)C[C@H]1CC[C@H]2[C@@H]3CC[C@@H]4C[C@](C)(O)CC[C@@H]4[C@H]3CC[C@]12C)n1cc(C#N)cn1 [Example 7, 1-(4-((3R,5R,8R,9R,10S,13R,14S,17R)-3-hydroxy-3,13-dimethylhexadecahydro-1H-cyclopenta[a]phenanthren-17-yl)-2-methyl-3-oxobutan-2-yl)-1H-pyrazole-4-carbonitrile]	100 to 1000
C[C@H](C(=O)C[C@H]1CC[C@H]2[C@@H]3CC[C@@H]4C[C@](C)(O)CC[C@@H]4[C@H]3CC[C@]12C)n1cc(C#N)cn1 [Example 8, 1-((R)-4-((3R,5R,8R,9R,10S,13R,14S,17R)-3-hydroxy-3,13-dimethylhexadecahydro-1H-cyclopenta[a]phenanthren-17-yl)-3-oxobutan-2-yl)-1H-pyrazole-4-carbonitrile]	100 to 1000
C[C@@H](C(=O)C[C@H]1CC[C@H]2[C@@H]3CC[C@@H]4C[C@](C)(O)CC[C@@H]4[C@H]3CC[C@]12C)n1cc(C#N)cn1 [Example 9, 1-((S)-4-((3R,5R,8R,9R,10S,13R,14S,17R)-3-hydroxy-3,13-dimethylhexadecahydro-1H-cyclopenta[a]phenanthren-17-yl)-3-oxobutan-2-yl)-1H-pyrazole-4-carbonitrile]	100 to 1000
C[C@H](C(=O)Cn1cc(C#N)cn1)[C@H]1CC[C@H]2[C@@H]3CC[C@@H]4C[C@](C)(O)CC[C@@H]4[C@H]3CC[C@]12C [Example 10, 1-((S)-3-((3R,5R,8R,9R,10S,13S,14S,17R)-3-hydroxy-3,13-dimethylhexadecahydro-1H-cyclopenta[a]phenanthren-17-yl)-2-oxobutyl)-1H-pyrazole-4-carbonitrile]	< 100
C[C@@H](C(=O)Cn1cc(C#N)cn1)[C@H]1CC[C@H]2[C@@H]3CC[C@@H]4C[C@](C)(O)CC[C@@H]4[C@H]3CC[C@]12C [Example 11, 1-((R)-3-((3R,5R,8R,9R,10S,13S,14S,17R)-3-hydroxy-3,13-dimethylhexadecahydro-1H-cyclopenta[a]phenanthren-17-yl)-2-oxobutyl)-1H-pyrazole-4-carbonitrile]	100 to 1000
C[C@@]1(O)CC[C@H]2[C@H](CC[C@@H]3[C@@H]2CC[C@]2(C)[C@@H](CC(=O)c4ccc(C#N)cc4)CC[C@@H]32)C1 [Example 12, 4-(2-((3R,5R,8R,9R,10S,13R,14S,17R)-3-hydroxy-3,13-dimethylhexadecahydro-1H-cyclopenta[a]phenanthren-17-yl)acetyl)benzonitrile]	< 100
COC[C@@]1(O)CC[C@@]2(C)[C@H](CC[C@@H]3[C@@H]2CC[C@]2(C)[C@@H](C(=O)CCn4cc(C#N)cn4)CC[C@@H]32)C1 [Example 13, 1-(3-((3R,5R,8R,9S,10S,13S,14S,17S)-3-hydroxy-3-(methoxymethyl)-10,13-dimethylhexadecahydro-1H-cyclopenta[a]phenanthren-17-yl)-3-oxopropyl)-1H-pyrazole-4-carbonitrile]	< 100
